Measured values from US20220267376A1, “P53 ACTIVATOR PEPTIDOMIMETIC MACROCYCLES” (Merck Sharp & Dohme Corp., priority 2019, published 2022).
“Also recorded” adds a separate entry of the source. Like-named read-outs stand apart in the source and are kept apart here. Starred links: 1 amine or outer side, 2 acyl side, 3 side chain; linkers in the order of their positions; H or OH if unused. Positions of bridges follow the written chain, without caps; N, C: chain ends. Non-standard residues stand in square brackets, D forms with d. Residues, ends and D or L forms follow the SMILES beside them. No end group written: not given here. ξ: configuration not given here. dPhe(4-CF3) = N[C@H](Cc1ccc(C(F)(F)F)cc1)C(=O)O; dTrp(6-F) = N[C@H](Cc1c[nH]c2cc(F)ccc12)C(=O)O; ξPhe(4-CF3) = NC(Cc1ccc(C(F)(F)F)cc1)C(=O)O; X1 = C[C@](CCCCC=[*:3])(N[*:1])C(=O)[*:2]; R8 = C=CCCCCCC[C@@](C)(N)C(=O)O; S8 = C=CCCCCCC[C@](C)(N)C(=O)O; R5 = C=CCCC[C@@](C)(N)C(=O)O; S5 = C=CCCC[C@](C)(N)C(=O)O

T1: MDM4 (Homo sapiens, UniProt O15151)
T1 construct: GST; made in house
T1 sequence (O15151 1-490): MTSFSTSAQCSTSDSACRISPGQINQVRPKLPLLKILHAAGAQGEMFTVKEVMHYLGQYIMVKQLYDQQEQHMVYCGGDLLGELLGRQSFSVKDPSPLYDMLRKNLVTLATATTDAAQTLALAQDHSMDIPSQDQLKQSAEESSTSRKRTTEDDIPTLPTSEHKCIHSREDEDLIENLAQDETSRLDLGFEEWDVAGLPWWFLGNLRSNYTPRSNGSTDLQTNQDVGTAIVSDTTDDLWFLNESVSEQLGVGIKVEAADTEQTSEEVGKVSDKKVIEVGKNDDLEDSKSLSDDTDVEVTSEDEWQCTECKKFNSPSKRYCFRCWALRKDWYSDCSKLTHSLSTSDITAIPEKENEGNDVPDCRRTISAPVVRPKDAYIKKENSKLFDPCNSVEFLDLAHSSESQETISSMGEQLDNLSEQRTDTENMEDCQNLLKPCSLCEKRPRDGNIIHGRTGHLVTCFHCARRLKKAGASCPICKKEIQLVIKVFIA


How the values were obtained:
[1] = Circular dichroism (CD) helicity of peptide in solution; format: physicochemical; details: 25° C.
Procedure: Prior to the experiment, 5 μl of the 10 mM stock peptide was mixed with 45 μl of 100% methanol, and dried for 2 hours in the SpeedVac concentrator (Thermo Scientific). The dried peptide was reconstituted in buffer, containing 1 mM HEPES pH 7.4 and 5% methanol, to a concentration of 1 mM. The peptide sample was placed in a quartz cuvette with a path length of 0.2 cm and the CD spectrum was recorded from 300 to 190 nm at 25° C., using the Chirascan-plus qCD machine (Applied Photophysics). […] An estimate of the secondary stmcture components of the peptide was carried out by converting the CD spectrum to mean residue ellipticity, before deconvoluting using the CDNN software (distributed by Applied Photophysics). All experiments were done in duplicates.

MDM2 [2] = biological target: T2, MDM2 (Homo sapiens, UniProt Q00987); assay: MDM2 binding assay, fluorescence polarization (FP) competition; details: for Kd: apparent Kd, competition with FAM-labeled 12/1 peptide
T2 construct: GST (N); His6 (N); made in house; host or cells: E. coli BL21 (DE3) Rosetta T1R

MDM4 = biological target: T1, MDM4; assay: Fluorescence polarization (FP) binding to MDM4/MDMX; details: for Kd: FP assay, MDM4 (MDMX)
MDM2 [3] = biological target: T2, MDM2; assay: Surface plasmon resonance (SPR) binding to MDM2; details: for Kd: MDM2
[4] = tested on: HCT116 p53 reporter cells; assay: p53 beta-lactamase reporter gene assay; format: cell-based; details: for EC50: read-out: P53 activity EC50 (μM) (2% FBS) 16 H, HCT116 p53 reporter, 2% FBS, 16 H; for p53 activation in reporter cells: 16 hours, up to 50 μM
Procedure: The cells were incubated overnight and followed by removal of cell growth media and replaced with Opti-MEM either containing 0% FBS or 10% FBS. […] Measurements were done using Envision multiplate reader (Perkin-Elmer).

[5] = tested on: Jump-In™ T-REx™ CHO-K1 BLA cells; assay: Tetracycline beta-lactamase reporter gene assay (counterscreen); format: cell-based; details: for EC50: read-out: Counterscreen EC50 (μM) (2% FBS) 16 H, 2% FBS, 16 H
Procedure: Cells were seeded into a 384-well plate a density of 4000 cells per well. […] Measurements were carried out using Envision multiplate reader (Perkin-Elmer).

[6] = biological target: T3, human MDM2 protein (amino acids 1-125) (Homo sapiens, UniProt Q00987); assay: Isothermal titration calorimetry (ITC) with MDM2; format: binding; parameters: purified recombinant human MDM2 protein (amino acids 1-125); GST (N); His6 (N); TEV cleavage site ENLYFQG (N); made in house; host or cells: E. coli BL21 (DE3) Rosetta T1R; details: for ITC TΔS / ITC ΔG: binding to MDM2; for ITC ΔH: enthalpy of binding to MDM2
Target sequence in this assay (Q00987 1-125): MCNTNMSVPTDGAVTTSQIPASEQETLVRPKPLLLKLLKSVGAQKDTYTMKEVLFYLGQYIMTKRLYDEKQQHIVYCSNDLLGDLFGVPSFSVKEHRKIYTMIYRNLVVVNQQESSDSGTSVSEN
Procedure: All experiments were performed in duplicates using the MicroCal PEAQ-ITC Automated system. […] For peptides that are insoluble at high concentrations, reverse ITC was carded out by titrating 200 μM of MDM2 protein into 20 μM of peptide. […] Data analysis was carried out using the MicroCal PEAQ-ITC Analysis Software.

HCT116 cells = assay: Lactate dehydrogenase (LDH) release assay; format: cell-based; details: up to 50 μM
Procedure: The cells were incubated overnight followed by removal of cell media and addition of Opti-MEM Medium without FBS. Cells were then treated with peptides for 4/16 hours in Opti-MEM either in 10% FBS or serum free. Final concentration of DMSO was 0.5%. […] Measurements were carried out using Tecan plate reader.

[7] = biological target: T3, human MDM2 protein (amino acids 1-125); assay: cell-based or functional assay
Target sequence in this assay (Q00987 1-125 limits assumed): as the sequence (Q00987 1-125) above

[8] = biological target: T3, human MDM2 protein (amino acids 1-125); assay: fluorescence polarization competition, MDM2
Target sequence in this assay (Q00987 1-125 limits assumed): as the sequence (Q00987 1-125) above

[9] = biological target: T3, human MDM2 protein (amino acids 1-125); assay: SPR, biotinylated MDM2 on streptavidin, peptide as analyte
Target sequence in this assay (Q00987 1-125 limits assumed): as the sequence (Q00987 1-125) above

[10] = biological target: T3, human MDM2 protein (amino acids 1-125); assay: fluorescence polarization competition, FAM-12/1 tracer, MDM2
Target sequence in this assay (Q00987 1-125 limits assumed): as the sequence (Q00987 1-125) above

[11] = biological target: T3, human MDM2 protein (amino acids 1-125); assay: fluorescence anisotropy competition: unlabeled peptide titrated against the complex of MDM2 (250 nM) and FAM-labeled 12/1 peptide (50 nM)
Target sequence in this assay (Q00987 1-125 limits assumed): as the sequence (Q00987 1-125) above

MDM4 protein (human) = MDM4 protein (human) (UniProt O15151); assay: fluorescence polarization assay on MDM4 (anisotropy falls with the peptide concentration; the labeled tracer used with MDM4 is not given)

Molecule	CD (% helicity) [1] [%]	Kd (MDM2 [3]; Table 1) [nM]	binding to MDM2 in FP assay (MDM2 [2])	binding to MDMX in FP assay (MDM4)	P53 activity EC50 (µM) (2% FBS) 16 H [7]	Kd [9] [nM]	EC50 [5] [µM]	p53 activation in reporter cells [4]	further results
CC(C)C[C@@H](NC(=O)[C@@H](CC(C)C)NC(=O)[C@@H](CCCCN)NC(=O)[C@@H](CCC(=O)O)NC(=O)[C@@H](Cc1ccc(C(F)(F)F)cc1)NC(=O)[C@@H](CC(N)=O)NC(=O)[C@@]1(C)CCCCCC/C=C\CCC[C@@](C)(N)C(=O)N[C@H](C)C(=O)N[C@H](Cc2c[nH]c3cc(F)ccc23)C(=O)N[C@H](Cc2ccc(O)cc2)C(=O)N1)C(=O)N[C@H](CCCNC(=N)N)C(N)=O [^DPMI-δ (1-5)]	24.7	< 1	–	–	–	–	≥ 50	–	Kd (MDM2 [2]): 13.2 nM; Kd (MDM4): 4.5 nM; Kd (MDM2 [3]; Table 2): < 1 nM; EC50 [4]: 13.7 µM; EC50 ([4]; listed as DPMI-δ(1-5)): 17.5 µM; counterscreen activity [5]: didn't exhibit activity; ITC TΔS [6]: 3.04 kcal/mol; ITC ΔG [6]: -11.6 kcal/mol; ITC ΔH [6]: -15.8 kcal/mol
CC(C)C[C@@H](NC(=O)[C@@H](CC(C)C)NC(=O)[C@@H](CCCCN)NC(=O)[C@@H](CCC(=O)O)NC(=O)[C@@H](Cc1ccc(C(F)(F)F)cc1)NC(=O)[C@@H](CC(N)=O)NC(=O)[C@@H](C)NC(=O)[C@@H](Cc1ccc(O)cc1)NC(=O)[C@@H](Cc1c[nH]c2cc(F)ccc12)NC(=O)[C@@H](C)NC(=O)[C@H](N)[C@H](C)O)C(=O)N[C@H](CCCNC(=N)N)C(N)=O [^DPMI-δ, reference compound]	–	–	–	–	–	–	–	no p53 activation	–
CC(C)C[C@@H](NC(=O)[C@@H](CC(C)C)NC(=O)[C@@]1(C)CCC/C=C\CCCCCC[C@](C)(NC(=O)[C@H](N)[C@H](C)O)C(=O)N[C@H](Cc2c[nH]c3cc(F)ccc23)C(=O)N[C@H](Cc2ccc(O)cc2)C(=O)N[C@H](C)C(=O)N[C@H](CC(N)=O)C(=O)NC(Cc2ccc(C(F)(F)F)cc2)C(=O)N[C@H](CCC(=O)O)C(=O)N1)C(=O)N[C@H](CCCNC(=N)N)C(N)=O (stereo partly drawn) [^DPMI-(2-9)] (H-[dT][S8][dTrp(6-F)][dY][dA][dN][ξPhe(4-CF3)][dE][R5][dL][dL][dR]-NH2; staple (Z) 2-9)	26.5	7.4	no binding	no binding	–	–	≥ 50	unable to activate cellular p53	Kd (MDM2 [2]): 3350 nM; LDH leakage (HCT116 cells): did not cause LDH leakage
CC(C)C[C@@H](NC(=O)[C@@]1(C)CCC/C=C\CCC[C@@](C)(NC(=O)[C@@H](C)NC(=O)[C@@H](Cc2ccc(O)cc2)NC(=O)[C@@H](Cc2c[nH]c3cc(F)ccc23)NC(=O)[C@@H](C)NC(=O)[C@H](N)[C@H](C)O)C(=O)N[C@H](Cc2ccc(C(F)(F)F)cc2)C(=O)N[C@H](CCC(=O)O)C(=O)N[C@H](CCCCN)C(=O)N1)C(=O)N[C@H](CCCNC(=N)N)C(N)=O [^DPMI-δ (6-10)]	39.9	59	no binding; also recorded: non-binder	no binding	–	–	–	–	ITC TΔS [6]: -1.86 kcal/mol; ITC ΔG [6]: -11.2 kcal/mol; ITC ΔH [6]: -9.35 kcal/mol
CC(C)C[C@H]1NC(=O)[C@@H](CC(C)C)NC(=O)[C@@](C)(NC(=O)[C@@H](CCC(=O)O)NC(=O)[C@@H](Cc2ccc(C(F)(F)F)cc2)NC(=O)[C@@H](CC(N)=O)NC(=O)[C@@]2(C)CCC/C=C\CCC[C@@](C)(N)C(=O)N[C@H](C)C(=O)N[C@H](Cc3c[nH]c4cc(F)ccc34)C(=O)N[C@H](Cc3ccc(O)cc3)C(=O)N2)CCC/C=C\CCC[C@](C)(C(N)=O)NC1=O [^DPMI-δ (1-5,9-12)] (H-[R5][dA][dTrp(6-F)][dY][R5][dN][dPhe(4-CF3)][dE][S5][dL][dL][R5]-NH2; staple (Z) 1-5, 9-12)	20	< 1	–	–	–	–	≥ 50	–	Kd (MDM4): 2.1 nM; Kd (MDM2 [3]; Table 2): < 1 nM; EC50 [4]: 34.6 µM; LDH leakage (HCT116 cells): No detectable LDH leakage; counterscreen activity [5]: negligible counter screen activity

Second part, led by results:

CD (% helicity) [1] [%]	Kd (MDM2 [3]; Table 1) [nM]	binding to MDM2 in FP assay (MDM2 [2])	binding to MDMX in FP assay (MDM4)	P53 activity EC50 (µM) (2% FBS) 16 H [7]	Kd [9] [nM]	Molecule	EC50 [5] [µM]	p53 activation in reporter cells [4]	further results
46.7	> 500	no binding	no binding	–	–	CC(C)C[C@@H](NC(=O)[C@@H](CC(C)C)NC(=O)[C@@H](CCCCN)NC(=O)[C@@H](CCC(=O)O)NC(=O)[C@@H](Cc1ccc(C(F)(F)F)cc1)NC(=O)[C@@]1(C)CCC/C=C\CCC[C@@](C)(NC(=O)[C@H](N)[C@H](C)O)C(=O)N[C@H](Cc2c[nH]c3cc(F)ccc23)C(=O)N[C@H](Cc2ccc(O)cc2)C(=O)N[C@H](C)C(=O)N1)C(=O)N[C@H](CCCNC(=N)N)C(N)=O [^DPMI-δ (2-6)] (H-[dT][R5][dTrp(6-F)][dY][dA][R5][dPhe(4-CF3)][dE][dK][dL][dL][dR]-NH2; staple (Z) 2-6)	13.9	unable to activate cellular p53	binding to MDM2 in SPR (MDM2 [3]): non-binder; Kd (MDM2 [3]; Table 2): > 500 nM
38.0	29	no binding	no binding	–	–	CC(C)C[C@@H](NC(=O)[C@@H](CC(C)C)NC(=O)[C@@]1(C)CCCC/C=C\CCC[C@@](C)(NC(=O)[C@@H](Cc2ccc(O)cc2)NC(=O)[C@@H](Cc2c[nH]c3cc(F)ccc23)NC(=O)[C@@H](C)NC(=O)[C@H](N)[C@H](C)O)C(=O)N[C@H](CC(N)=O)C(=O)N[C@H](Cc2ccc(C(F)(F)F)cc2)C(=O)N[C@H](CCC(=O)O)C(=O)N1)C(=O)N[C@H](CCCNC(=N)N)C(N)=O [^DPMI-δ (5-9)] (H-[dT][dA][dTrp(6-F)][dY][R5][dN][dPhe(4-CF3)][dE][X1][dL][dL][dR]-NH2; staple (Z) 5-9)	47	unable to activate cellular p53	LDH leakage (HCT116 cells): did not cause LDH leakage
–	–	–	–	4	< 1	XAXYXNXEKLLX (all alpha-amino acids have a D configuration; Xaa1 is R5 ((R)-2-(4'-pentenyl)-alanine), Xaa5 is B5 (2,2-(4'-pentenyl)-glycine), Xaa12 is R8 ((R)-2-(7'-octenyl)-alanine), joined by a hydrocarbon stitch 1-5 and 5-12 with residue 5 in common; Xaa3 is 6-F-Trp; Xaa7 is p-CF3-Phe; Xaa12 optionally has a C-terminal amide; Xaa1 optionally has a N-terminal acyl) [^DPMI-δ(1,5,12)]	–	–	fold increase in affinity as compared to ^DPMI-δ(1-5) and ^DPMI-δ(5-12) [8]: 10 to 100 fold; Kd [10]: 4.25 nM; IC50 (read off the curve) [11]: 200 nM; IC50 (read off the curve) (MDM4 protein (human)): 1000 nM
–	–	–	–	> 50	–	[dT][S8][dTrp(6-F)][dY][dA][dN][dPhe(4-CF3)][dE][R5][dL][dL][dR]-NH2 (staple 2-9) [^DPMI-δ(2-9)]	–	–	–
–	–	–	–	13.7	< 1	XAXYXNXEKLLR (all alpha-amino acids have a D configuration; Xaa1 is R5 and Xaa5 is R5 ((R)-2-(4'-pentenyl)-alanine), joined by a hydrocarbon staple; Xaa3 is 6-F-Trp; Xaa7 is p-CF3-Phe; Xaa12 optionally has a C-terminal amide; Xaa1 optionally has a N-terminal acyl) [^DPMI-δ(1-5)]	–	–	cellular activation of p53, EC50 (HCT116 p53 reporter cells) [7]: 17500 nM; IC50 (read off the curve) [11]: 500 nM; IC50 (read off the curve) (MDM4 protein (human)): 600 nM
–	–	–	–	34.6	< 1	[R5][dA][dTrp(6-F)][dY][R5][dN][dPhe(4-CF3)][dE][S5][dL][dL][R8]-NH2 (staple 1-5, 9-12) [^DPMI-δ(1-5,9-12)]	–	–	fold increase in affinity as compared to ^DPMI-δ(1-5) and ^DPMI-δ(5-12) [8]: 10 to 100 fold; Kd [10]: 0.7 nM; IC50 (read off the curve) [11]: 200 nM; IC50 (read off the curve) (MDM4 protein (human)): 2000 nM
–	–	–	–	> 50	> 500	[dT][R5][dTrp(6-F)][dY][dA][R5][dPhe(4-CF3)][dE][dK][dL][dL][dR]-NH2 (staple 2-6) [^DPMI-δ(2-6)]	–	–	Kd [10]: > 10000 nM
